This is an account of results in patent US7211602B2, “Treatment of neurodegenerative disorders through the modulation of the polyamine pathway” (ALS Therapy Development Foundation, Inc., priority 2001, dated 2007).

The subject of series [1] is patients with advanced non-small cell lung cancer. Conditions: Hahm et al. 2002; cited from earlier work.
The test system of a further series is ODC. Conditions: cited from earlier work.

Like-named read-outs stand apart in the source and are kept apart here.

Text for SOD1 G93A mice: • (i) Model Description: The SOD1 G93A (high copy) mouse model was used as the model for ALS. This mouse model carries 25 copies of the human G93A SOD mutation and is driven by the endogenous promoter. Survival in the mouse is copy dependent. The high copy G93A has a median survival of around 128 days. High molecular weight complexes of mutant SOD protein are seen in the spinal cord beginning around day 30. At day 60 reactive astrocytosis (GFAP reactive) are observed; activated microglia are observed from day 90 onwards.
DFMO was obtained in oral form from ILEX Oncology, Inc (San Antonio, Tex.). • (iv) Methods: Forty (n=40) SOD1 G93A high copy mice obtained from Jackson Laboratory (Bar Harbor, Me.) were separated into two groups of twenty (n=20) with an equal number of males (n=10) and females (n=10) in each group. The groups were also litter matched to reduce group variation. Male animals were singly housed and females were group housed to conserve space. […] When animals had difficulty in moving and taking care of themselves chow and water were replaced with food pellets in bedding and Jell-O for water. • (v) Pharmacological Agent Delivery: All pharmacological agents were administered to SOD1 G93A mice. DFMO was delivered according to a chronic delivery protocol applied in the human glioblastoma trial (UCSF Clinical trial protocol of ALS).
In Example 2, the animals were dosed at 3200 mg/Kg/day of DFMO in drinking water for 21 days followed by a 7 day drug holiday (no DFMO). In Example 3, the animals were continually dosed at 3200 mg/Kg/day of DFMO in drinking water. Controls animals were given water as vehicle. All treatments are performed 7 days per week and treatment was initiated at day 60 of life. The treated group continued to receive 3200 mg/kg/day of DFMO in drinking water until a neurological score of 2 (See section (vi) below) at which point drug was delivered via intraperitineal injection (IP) injection. When a neurological score of 2 is attained, the animals are no longer capable of drinking themselves due to paralysis. At this point, the same dosage of DFMO is administered to the animal in IP injection form. Controls were given water as vehicle until a neurological score of 2 at which point they were injected with saline as vehicle.
In Example 6, hydroxyurea was administered by intraperitineal injection at a dose of 250 mg/Kg/day once daily for 7 days a week, beginning at day 50 until day 110.
The animals are sacrificed at this stage if alive. • (vii) End Points and Statistics: The primary end point is survival with secondary end points of neurological score and body weight. Neurological score observations and body weight are made and recorded five days per week. • (viii) Statistical Analysis: Statistical analysis on body weight and neurological score was performed using mixed linear model repeated measure ANOVA. Survival analysis was performed by Kaplan-Meier analysis using the frailty model for sex and litter correction.

For `NCCCC(N)(C(=O)O)C(F)F` (racemic) [DFMO, 2-(Difuoromethyl)-DL-ornithine], the “effect in male mice, ongoing IP injection study” value with SOD1 G93A mice (IP injection, 3200 mg/kg, male mice) is given as “positive male trend”. The “Percent survival analysis: life span” value in the series with SOD1 G93A mice (continuous dosing 3200 mg/Kg/day in drinking water, no drug holiday, until death, FIGS. 4, 6 and 8) is recorded as “extended the life span”. In the series on SOD1 G93A mice (continuous dosing 3200 mg/Kg/day, combined male and female, FIG. 5), the “Neurological score analysis, combined male and female” value is on record as “protective”. Moreover, the “Neurological score analysis, female” value with SOD1 G93A mice (continuous dosing 3200 mg/Kg/day, FIG. 9) is “protective”. Moreover, in the series with SOD1 G93A mice (continuous dosing 3200 mg/Kg/day, male, FIG. 7), the “Neurological score analysis, male” value is on record as “protective”. For the same compound, the “Neurological score analysis, combined results” value in the series with SOD1 G93A mice (discontinuous dosing 3200 mg/Kg/day, combined male and female mice) is listed as “No effect”. Also, the “Neurological score analysis, female mice” value in the series with SOD1 G93A mice (discontinuous dosing 3200 mg/Kg/day, female mice, during the drug delivery period, FIG. 3) is recorded as “protective”. For the same compound, the “Neurological score analysis, male mice” value with SOD1 G93A mice (discontinuous dosing 3200 mg/Kg/day, male mice) was “No effect”. The “Percent survival analysis: onset of disease and survival” value with SOD1 G93A mice (discontinuous dosing, 3200 mg/Kg/day in drinking water, 21 days on / 7 day holiday, FIG. 2) was “delays the onset of disease and extends the survival”. The “deaths of animals in the treatment group that occurred during the drug holiday or a few days immediately succeeding the holiday” value in the series on SOD1 G93A mice (female SOD1 G93A mice, 3200 mg/Kg/day in drinking water for 21 days followed by 7 day drug holiday, control group 30%, FIG. 2) is 70%.
As to `CCNCCCNCCCNCCCNCC` [DENSPM, N(1),N(11)-diethylnorspermine], the “Neurological score analysis, female” value in the series with SOD1 G93A mice (intraperitoneal 24 mg/kg/day twice daily till death, FIG. 13) was “protective”. Moreover, the “Percent survival analysis: onset of disease and survival” value in the series with SOD1 G93A mice (intraperitoneal 24 mg/kg/day twice daily, 7 days a week till death, female mice, FIG. 12) is “delays the onset of disease and extends the survival”. In addition, the “safety of administration to patients” value in series [1] is listed as “minimal toxicity”.
For the compound `NC(=O)NO` [hydroxyurea], the “Percent survival analysis: life span” value with SOD1 G93A mice (intraperitoneal 250 mg/Kg/day once daily, day 50 until day 110, female mice, FIG. 10) was “extended the life span”. Moreover, the “Neurological score analysis, female” value in the series on SOD1 G93A mice (intraperitoneal 250 mg/Kg/day once daily, day 50 until day 110, FIG. 11) was “protective”.
Regarding `NCCCCNCCCN` [spermidine], the “concentration in the culture medium that can inhibit ODC production for hours” value in the series with ODC was 50 µM.
